Test results taken from patent publication US20100278849A1, “PROSTATIC ACID PHOSPHATASE ANTIGENS” (priority 2004, published 2010).
“Also recorded” adds a separate entry of the source.

Tests used:
HLA-A2 = HLA-A2 (Homo sapiens, UniProt P04439, D140Y/D185E/D98H/E176V/E277Q/G131W/G231S/I119V/I121R/I166T/I218V/L300P/L318F/N151K/N90K/P208A/P217A/Q86G/Q94H/R138H/R169H/T345S); conditions: earlier reports; cited from earlier work
HLA-A2*0201 = HLA-A2*0201 (Homo sapiens, UniProt P04439, D140Y/D185E/D98H/E176V/E277Q/G131W/G231S/I119V/I121R/I166T/I218V/L300P/L318F/N151K/N90K/P208A/P217A/Q86G/Q94H/R138H/R169H/T345S); type: cell-based

**Q.** With ALDVYNGLL [PAP.299, reference compound] as the sequence, how does the “HLA-A2 binding previously described” value (HLA-A2) read?
**A.** strong HLA-A2 binding

**Q.** What about the “binding to HLA-A2 (T2 cells)” value (HLA-A2*0201) of the same sequence?
**A.** no significant binding; also recorded: unable to confirm the strong HLA-A2 binding
